# pIC50: −log10 of the molar value.
# Biological target: [35S]-TBPS binding, rat brain cortical membranes
# Assay: Steroid inhibition of [35S]-TBPS binding
# Settings: 3 nM [35S]-TBPS, in the presence of 5 mM GABA
# Summary of the method: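 In the presence of […], compounds (DMSO 0.5% final) competed with 3 nM [35S]-TBPS for Sprague-Dawley rat cortical membranes, pH 7.4 phosphate buffer, 90 min, room temperature. Filtration and scintillation counting; specific binding defined by […]; IC50 and maximal inhibition fitted per experiment, averaged as mean ± SEM.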
row,SMILES,pIC50
1,C[C@@H](Cc1nc(C(F)(F)F)cs1)[C@H]1CC[C@H]2[C@@H]3CC[C@@H]4C[C@](C)(O)CC[C@@H]4[C@H]3CC[C@]12C [Example 449],> 7.00
2,"CCC[C@@]1(O)CC[C@@]2(C)[C@H](CC[C@@H]3[C@@H]2CC[C@]2(C)[C@@H]([C@@H](C)Cn4nnnc4C)CC[C@@H]32)C1 [Example 315, (3R,5R,8R,9S,10S,13S,14S,17R)-10,13-dimethyl-17-((R)-1-(5-methyl-1H-tetrazol-1-yl)propan-2-yl)-3-propylhexadecahydro-1H-cyclopenta[a]phenanthren-3-ol]",> 7.00
3,C[C@@H](NC(=O)c1ccc(F)cn1)[C@H]1CC[C@H]2[C@@H]3CC[C@@H]4C[C@](C)(O)CC[C@@H]4[C@H]3CC[C@]12C [Example 127],6.00 to 7.00
4,"COC[C@@]1(O)CC[C@H]2[C@H](CC[C@@H]3[C@@H]2CC[C@]2(C)[C@@H]([C@@H](C)Cn4nccc4C#N)CC[C@@H]32)C1 [Example 37, 1-((R)-2-((3R,5R,8R,9R,10S,13S,14S,17R)-3-hydroxy-3-(methoxymethyl)-13-methylhexadecahydro-1H-cyclopenta[a]phenanthren-17-yl)propyl)-1H-pyrazole-5-carbonitrile]",> 7.00
5,CCC[C@@]1(O)CC[C@H]2[C@H](CC[C@@H]3[C@@H]2CC[C@]2(C)[C@@H]([C@@H](C)Cc4ccc(C(F)(F)F)nc4)CC[C@@H]32)C1 [Example 410],6.00 to 7.00
6,COC[C@@]1(O)CC[C@H]2[C@H](CC[C@@H]3[C@@H]2CC[C@]2(C)[C@@H]([C@H](C)Nc4ccc(C#N)cc4C)CC[C@@H]32)C1 [Example 253],5.00 to 6.00
7,CCOC[C@@]1(O)CC[C@H]2[C@H](CC[C@@H]3[C@@H]2CC[C@]2(C)[C@@H]([C@@H](C)NS(=O)(=O)c4cccc(C#N)n4)CC[C@@H]32)C1 [Example 71],6.00 to 7.00
8,"C[C@@]1(O)CC[C@H]2[C@H](CC[C@@H]3[C@@H]2CC[C@]2(C)[C@@H]([C@H](C#N)Cn4cc(C#N)cn4)CC[C@@H]32)C1 [Example 355, 1-((S)-2-cyano-2-((3R,5R,8R,9R,10S,13S,14S,17R)-3-hydroxy-3,13-dimethylhexadecahydro-1H-cyclopenta[a]phenanthren-17-yl)ethyl)-1H-pyrazole-4-carbonitrile]",> 7.00
9,Cc1cncc(C[C@H](C)[C@H]2CC[C@H]3[C@@H]4CC[C@@H]5C[C@](C)(O)CC[C@@H]5[C@H]4CC[C@]23C)n1 [Example 441],> 7.00
10,Cc1cnc(C[C@@H](C)[C@H]2CC[C@H]3[C@@H]4CC[C@@H]5C[C@](C)(O)CC[C@@H]5[C@H]4CC[C@]23C)s1 [Example 431],6.00 to 7.00
11,"CCC[C@@]1(O)CC[C@H]2[C@H](CC[C@@H]3[C@@H]2CC[C@]2(C)[C@@H]([C@@H](C)Cn4nnc(C)n4)C(=O)C[C@@H]32)C1 [Example 364, (3R,5R,8R,9R,10S,13S,14S,17R)-3-hydroxy-13-methyl-17-((R)-1-(5-methyl-2H-tetrazol-2-yl)propan-2-yl)-3-propyltetradecahydro-1H-cyclopenta[a]phenanthren-16(2H)-one]",6.00 to 7.00
12,"C[C@H](Cn1cc(C#N)cn1)[C@H]1CC[C@H]2[C@@H]3CC[C@@H]4C[C@@](O)(C5CC5)CC[C@@H]4[C@H]3CC[C@]12C [Example 342, 1-((S)-2-((3R,5R,8R,9R,10S,13S,14S,17R)-3-cyclopropyl-3-hydroxy-13-methylhexadecahydro-1H-cyclopenta[a]phenanthren-17-yl)propyl)-1H-pyrazole-4-carbonitrile]",6.00 to 7.00
13,Cc1cncc(C[C@@H](C)[C@H]2CC[C@H]3[C@@H]4CC[C@@H]5C[C@](C)(O)CC[C@@H]5[C@H]4CC[C@]23C)n1 [Example 442],6.00 to 7.00
14,CCOC[C@@]1(O)CC[C@H]2[C@H](CC[C@@H]3[C@@H]2CC[C@]2(C)[C@@H]([C@@H](C)NS(=O)(=O)c4ccc(C#N)cn4)CC[C@@H]32)C1 [Example 73],> 7.00
15,"CCC[C@@]1(O)CC[C@@]2(CC)[C@H](CC[C@H]3[C@@H]4CC[C@H]([C@@H](C)Cn5cc(C#N)cn5)[C@@]4(C)CC[C@@H]32)C1 [Example 301, 1-((R)-2-((3R,5R,8S,9S,10S,13S,14S,17R)-10-ethyl-3-hydroxy-13-methyl-3-propylhexadecahydro-1H-cyclopenta[a]phenanthren-17-yl)propyl)-1H-pyrazole-4-carbonitrile]",> 7.00
16,"CC[C@@]1(O)CC[C@H]2[C@@H](CC[C@@H]3[C@@H]2CC[C@]2(C)[C@@H]([C@@H](C)Cn4nnc(C)n4)CC[C@@H]32)C1 [Example 333, (3R,5S,8R,9R,10S,13S,14S,17R)-3-ethyl-13-methyl-17-((R)-1-(5-methyl-2H-tetrazol-2-yl)propan-2-yl)hexadecahydro-1H-cyclopenta[a]phenanthren-3-ol]",6.00 to 7.00
17,"C[C@@H](NC(=O)c1ccccc1)[C@H]1CC[C@H]2[C@@H]3CC[C@@H]4C[C@](C)(O)CC[C@@H]4[C@H]3CC[C@]12C [Example 24, N—((R)-1-((3R,5R,8R,9R,10S,13S,14S,17S)-3-hydroxy-3,13-dimethylhexadecahydro-1H-cyclopenta[a]phenanthren-17-yl)ethyl)benzamide]",> 7.00
18,"CC(C)[C@@]1(O)CC[C@H]2[C@H](CC[C@@H]3[C@@H]2CC[C@]2(C)[C@@H]([C@H](C)Cn4cc(C#N)cn4)CC[C@@H]32)C1 [Example 344, 1-((S)-2-((3R,5R,8R,9R,10S,13S,14S,17R)-3-hydroxy-3-isopropyl-13-methylhexadecahydro-1H-cyclopenta[a]phenanthren-17-yl)propyl)-1H-pyrazole-4-carbonitrile]",≤ 5.00
19,"CC[C@H](Nc1cccc(C#N)c1)[C@H]1CC[C@H]2[C@@H]3CC[C@@H]4C[C@@](O)(COC)CC[C@@H]4[C@H]3CC[C@]12C [Example 496, 3-(((S)-1-((3R,5R,8R,9R,10S,13S,14S,17S)-3-hydroxy-3-(methoxymethyl)-13-methylhexadecahydro-1H-cyclopenta[a]phenanthren-17-yl)propyl)amino)benzonitrile]",6.00 to 7.00
20,COc1cncc(C[C@@H](C)[C@H]2CC[C@H]3[C@@H]4CC[C@@H]5C[C@](C)(O)CC[C@@H]5[C@H]4CC[C@]23C)c1 [Example 433],> 7.00
21,"COC[C@@]1(O)CC[C@H]2[C@H](CC[C@@H]3[C@@H]2CC[C@]2(C)[C@@H]([C@@H](C)NC(=O)c4ccc(C#N)cn4)CC[C@@H]32)C1 [Example 31, 5-cyano-N—((R)-1-((3R,5R,8R,9R,10S,13S,14S,17S)-3-hydroxy-3-(methoxymethyl)-13-methylhexadecahydro-1H-cyclopenta[a]phenanthren-17-yl)ethyl)picolinamide]",6.00 to 7.00

# — patent US20230322846A9, “NEUROACTIVE STEROIDS AND THEIR METHODS OF USE” (SAGE THERAPEUTICS, INC., priority 2018, published 2023)
